Data set [1] in a line: In vitro metabolic stability in human liver microsomes. It is filed as in vitro ADME. The settings on record: for % of the parent drug remaining / half-life at 1 µM / microsomal CLint at 1 µM: 1 µM; for % of the parent drug remaining: 60 min incubation; for half-life at 1 µM / microsomal CLint at 1 µM: human, human liver microsomes, pH 7.4; for half-life at 1 µM: 0.5 mg/mL protein, read-out: half-life (t1/2); for microsomal CLint at 1 µM: read-out: intrinsic clearance (CLint). The method, then:
An in vitro metabolism assay to study the phase I metabolism in the HLMs was in-house-developed. Optimization of the protocol included the test compound concentration (1, 5, 10 m and 50 µM) and extraction solvents (ACN and MeOH). […] The metabolic assay was initiated by the addition of 10 mM NADPH to the reaction solution and terminated after 0, 2.5, 5, 15, 30, 45, and 60 min via the addition of 200 µL of ice-cold MeOH containing the IS solution. The samples were than vortexed and spun for 15 min (14,000× g, 4 °C). The supernatant was collected, evaporated to dryness using the Concentrator plus (Eppendorf), and reconstituted with 100 µL of ACN/0.1% FA in water 10:90 (v:v). To ensure that the assay was performing adequately, the incubation of 1 µM diazepam at the same assay conditions as described was conducted, and the formation of its metabolites temazepam and nordazepam was monitored. A negative control included the absence of NADPH, the test compound, or HLMs during assay. […] The metabolic stability curves of the tested compounds were established by plotting the incubation time against the natural logarithm of the % parent drug remaining. The slope (k) of the linear part was utilized for the in vitro half-life (t1/2, min) as ln2/k. The V (µL/mg) was calculated as the volume of the reaction solution (100 µL) divided by the protein amount in the incubation (0.5 mg). The protein amount was predetermined by the supplier and the content was checked by using a Pierce™ BCA Protein Assay Kit (Thermo Fisher Scientific, Vienna, Austria) for each freshly opened tube. The intrinsic clearance (CLint, µL/min/mg) was calculated according to the following equation:(7) CLint=0.693/t1/2·V […]
(Liver microsomes are a subcellular fraction often used to study metabolism.)

The nature of data set [2]: Equilibrium dialysis, brain tissue binding. It is filed as in vitro ADME, rat. The settings on record: for fraction unbound at 5 h, 10 µM: whole brain homogenate (1:9 in PBS), rat brain homogenate 1:9 in PBS pH 7.4, 10 µM, corrected for dilution, read-out: Fraction unbound in brain homogenate, fu,brain. Here is the method: A Teflon 96-well plate (model HTD96b, HTDialysis LLC, Gales Ferry, CT, USA) was used in all tissue-binding experiments. Th evaluation of PPB was determined according to van Liempd et al. (2011) and BTB according to the previously published protocols. […] The whole brain tissue from three rats was individually homogenized in 9 volumes of phosphate-buffered saline (PBS), pH 7.4. […] Then, 100 µL of spiked plasma or brain tissue homogenate in triplicate was dialyzed against an equal volume of PBS, pH 7.4, for 5 h at 37 °C and 200 rpm. Furthermore, 50 µL was taken from both sides of the membrane at the end of incubation. The unbound fraction of the compounds in the plasma (fu,plasma) or in the diluted (D) brain homogenate (fu,hD) was calculated according to the following equation:(1) fu,plasma or fu,hD=Cbuffer/Ctissue where Cbuffer represents the concentration of the compound measured in the buffer and Ctissue is the concentration measured in the plasma or brain tissue homogenate. Due to dilution, fu,hD is usually higher than the actual fu,brain. Thus, fu,hD was corrected for the dilution factor (D), which is in this case 10 times. (2) fu,brain=fu,hD/D+fu,hD−D·fu,hD

For data set [3], the system named is cerebEND in vitro model of the blood–brain barrier. The data set is described as follows: In vitro Transwell blood-brain barrier model based on mouse cell line cerebEND. Type of data set: in vitro ADME. The following applies: for Clin (rate of BBB transport) / Clout (rate of BBB transport): parameter used in simulation; for Pe rat: scaled with BBB surface area 180 cm2, similar permeability in rat assumed. The source says: Research on modafinil analogs has gained significant momentum in recent decades due to the compound’s unique pharmacological properties and potential therapeutic applications. The primary objectives of these studies were to identify modafinil analogs that can address a wide range of cognitive deficits and neurological conditions effectively, with a reduced risk of side effects. In our previous study, we reported a series of modafinil analogs with higher DA reuptake inhibition activity and higher selectivity for the DAT in comparison to modafinil. These improvements were achieved by making strategic modifications involving the substitution of the carboxamide moiety with five- and six-membered aromatic heterocycles. […] In addition, Kristofova et al. (2018) have used the mouse cell line cerebEND as an in vitro model to study the ability of CE-123 to cross an in vitro model of the blood–brain barrier (BBB). […] Yet, due to significant differences in the plasma pharmacokinetic (PK) profiles, governed primarily by differences in metabolism, direct comparison between two compounds after single IP dosing could be misleading.
Table S4. Parameters used in simulation exercise.
Fraction of un bound in unitless 0.252 0.797
Rate of BBB transport parameters*
Ext ent of BBB transport and intra-brain dist ribution
Unbound brain-t o-plasma unitless 0.46 0.097 concentrati on rat io, Kp,uu,brain
Unbound volume of mL/g brain 5.21 3.73 distribution in brain, Vu,brain
Additional parameters used
Infusi on rate mg/h 0.05 1.0
* Data of blood-brain barrier per meation of 100 µM CE-123 and modafinil across an in vitro Transw ell model based on mouse cell line cerebEND were included in the simulation. Experimental procedures were published previously The permeability coefficients w ere calculated according to the clearance principle deduct ing blank inserts without cells.
**Similar apparent permeability in human BBB cell culture model and rat endot helial cells was assumed.

For the compound `[O-][S@@+](Cc1cncs1)C(c1ccccc1)c1ccccc1` [S-CE-123], in data set [1] (HLMs), the “fold faster metabolism compared to R-modafinil” value was 9.3 fold, the “% of the parent drug remaining” value was found to be 35%, the half-life at 1 µM is 0.65 h and the microsomal CLint at 1 µM turned out to be 3.6 µL/min/mg. In addition, the “brain tissue binding capacity, fold higher compared to R-modafinil” value in data set [2] (rat brain homogenate) worked out at 6.6 fold. Besides, in data set [2], the free fraction (fraction unbound) (as a rule, the share of the substance not bound to proteins or other matrix) at 5 h, 10 µM stood at 0.035 ± 0.012. Moreover, in data set [3], the “Clin (rate of BBB transport)” value is listed as 0.033 L/h, the “Clout (rate of BBB transport)” value is listed as 0.071 L/h and the Pe rat came out at 0.545 mL/min.

For `NC(=O)C[S@@+]([O-])C(c1ccccc1)c1ccccc1` [R-modafinil, reference compound], in data set [1] (HLMs), the “% of the parent drug remaining” value came out at 90%, the half-life at 1 µM came to 6.07 h and the microsomal CLint at 1 µM was 0.4 µL/min/mg. In addition, the metabolized in data set [1] (HLMs, 5, 10 and 50 µM) was ≤ 10%. In data set [2], the fraction unbound at 5 h, 10 µM stood at 0.23 ± 0.1. In data set [3], the “Clin (rate of BBB transport)” value is on record as 0.025 L/h, the “Clout (rate of BBB transport)” value was 0.261 L/h and the Pe rat is listed as 0.422 mL/min.

The record behind these values is article PMC10707468, “Pharmacokinetics of Novel Dopamine Transporter Inhibitor CE-123 and Modafinil with a Focus on Central Nervous System Distribution” (International Journal of Molecular Sciences, 2023).
